Assay results: PubChem BioAssay (NCI)
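48-hour exposure; five concentrations; linearly interpolated endpoints. Definition used: TGI = concentration required for complete inhibition of growth.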 *1 amine or outer side, *2 acyl side, *3 side chain or, on linkers, in order; H or OH if unused. Where a SMILES comes first, the peptide text is derived from it. Bridges are numbered along the chain shown (N, C = ends). Roman numbers before positions name the chains, in order. [ ]: non-standard residue; d: D form. Actinocin(9to1) = Cc1c2oc3c(C)ccc(C(=O)[*:1])c3nc-2c(C(=O)[*:2])c(N)c1=O; X48 = O=C1CC(C(=O)[*:2])N([*:1])C1; NMeV = CN[CH](C(=O)O)C(C)C; Sar = CNCC(=O)O

Assays:
Assay in all cases: DTP human tumour cell line panel, 48 h
[1] = tested on: HCT-15 colon
[2] = tested on: SN12C renal
[3] = tested on: OVCAR-8 ovarian
[4] = tested on: MALME-3M melanoma
[5] = tested on: HT29 colon
[6] = tested on: SR leukemia
[7] = tested on: SK-MEL-2 melanoma
[8] = tested on: MDA-MB-435
[9] = tested on: OVCAR-4 ovarian
[10] = tested on: MDA-N
[11] = tested on: HCC-2998 colon
[12] = tested on: M14 melanoma
[13] = tested on: HOP-62 NSCLC
[14] = tested on: UO-31 renal
[15] = tested on: COLO 205 colon
[16] = tested on: K-562 leukemia
[17] = tested on: SK-OV-3 ovarian
[18] = tested on: LOX IMVI melanoma
[19] = tested on: PC-3 prostate
[20] = tested on: BT-549 breast

Compound	TGI [1] [µM]	TGI [2] [µM]	TGI [3] [µM]	TGI [4] [µM]	TGI [5] [µM]	TGI [6] [µM]	TGI [7] [µM]	TGI [8] [µM]	TGI [9] [µM]	TGI [10] [µM]	TGI [11] [µM]	TGI [12] [µM]	TGI [13] [µM]	TGI [14] [µM]	TGI [15] [µM]	TGI [16] [µM]	TGI [17] [µM]	TGI [18] [µM]	TGI [19] [µM]	TGI [20] [µM]
CC1(C)CC[C@]2(C(=O)O)CC[C@]3(C)C(=CC[C@@H]4[C@@]5(C)C[C@H](O)[C@H](O)[C@@](C)(CO)C5=CC[C@]43C)[C@@H]2C1	> 100	> 100	> 100	> 100	> 100	> 100	> 100	> 100	68.5	> 100	92.6	> 100	> 100	> 100	42.4	> 100	> 100	> 100	> 100	
NCC#CCNCCCN1CC1	> 100	> 100	> 100	> 100	> 100	> 100	> 100	> 100	> 100	> 100	> 100	> 100	> 100		> 100	> 100	> 100	> 100	> 100	
CC(C)(C)[Si](C)(C)OCCCCC1CC2(S(=O)(=O)C3=CC=C=C=C3)ON1CC2S(=O)(=O)c1ccccc1 (centres undefined)	> 100	> 100	> 100		> 100		> 100	> 100	> 100	> 100	> 100	> 100	> 100	> 100	> 100	> 100	> 100			> 100
CC1(C)C(O)C[C@]23CCC[C@](C)(C[C@@H](O)C12)C3 (some centres undefined)	> 100	> 100	> 100	> 100	> 100	> 100	> 100	> 100	> 100			> 100	> 100	> 100	> 100	> 100	> 100	> 100	> 100	> 100
O=C1OCC2(CO1)CC1C=CC2C1 (centres undefined)	> 100	> 100		> 100	> 100	> 100	> 100	> 100	> 100	> 100	> 100	> 100	> 100	> 100	> 100	> 100	> 100	> 100	> 100	
CCOC(=O)C(Cc1ccccc1)NC(=O)c1ccc(N=NN(C)C)cc1 (centres undefined)	> 100	> 100	> 100	> 100	> 100	> 100	> 100		> 100		> 100	> 100	> 100	> 100	> 100	> 100	> 100	> 100		
C[C@]12CCC(=O)C=C1CC[C@@H]1[C@@H]2CC[C@]2(C)C(=O)[C@H](n3ccnc3)C[C@@H]12	> 100	> 100	> 100	> 100	> 100	> 100	> 100	> 100	> 100	> 100		> 100		> 100	> 100	> 100		> 100	> 100	
O=C(C#CP(=O)(O)c1ccccc1)c1ccccc1	> 100	> 100	> 100	> 100	> 100	> 100	> 100	> 100	> 100	> 100	> 100	> 100	> 100	4.14	> 100	> 100	> 100	> 100	> 100	
CCOP(=O)(OCC)C1CC(O)CN1OC(=O)C(C)(C)C (centres undefined)	> 100	> 100	> 100	> 100	> 100	> 100	> 100	> 100	> 100	> 100		> 100	> 100	> 100	> 100	> 100	> 100	> 100	> 100	
CCc1ccc(Nc2cc(=O)[nH]c(SCc3ccccc3)n2)cc1	> 100	> 100	> 100	> 100	> 100	> 100	> 100	> 100		> 100		> 100	> 100	> 100	> 100	> 100	> 100	> 100		> 100
C=CCNC(=S)N1c2ccccc2NC(=O)CC1C (centres undefined)	> 100	> 100	> 100	> 100	> 100	> 100	> 100		> 100			> 100	> 100	> 100	> 100	> 100		> 100		
COC1C=CC(C(=O)[N+]2=Cc3[nH]c4ccccc4c3CC2)O1 (centres undefined)	> 100	> 100	> 100	> 100	> 100	82.7	> 100		> 100		> 100	> 100	> 100	> 100	> 100	> 100	> 100	> 100		
Cc1c2oc3c(C)ccc(C(=O)NC4C(=O)NC(C(C)C)C(=O)N5CC(=O)CC5C(=O)N(C)CC(=O)N(C)C(C(C)C)C(=O)OC4C)c3nc-2c(C(=O)NC2C(=O)NC(C(C)C)C(=O)N3CC(=O)CC3C(=O)N(C)CC(=O)N(C)C(C(C)C)C(=O)OC2C)c(N)c1=O (centres undefined) (I: TV[X48][Sar][NMeV] / II: TV[X48][Sar][NMeV]; ester I:1-I:C, II:1-II:C; linker I:N-II:N via Actinocin(9to1); configuration not given here)	> 1	> 1	> 1	> 1	> 1	> 1	> 1	> 1	> 1	> 1	> 1	> 1	> 1	> 1	> 1	> 1	> 1	> 1	> 1	
